Assay results reported in BigSolDB 2.1.

CCn1c2ccccc2c2cc(-n3nncc3-c3ccccc3)ccc21
solubility (mole fraction)
Settings	278.15 K	283.15 K	288.15 K	293.15 K	298.15 K	303.15 K	308.15 K	313.15 K	318.15 K	323.15 K
in acetonitrile	0.00173	0.0022	0.00272	0.00336	0.00412	0.00505	0.00609	0.00733	0.00897	0.011
in ethanol	0.000446	0.000546	0.000674	0.00084	0.00102	0.00124	0.00151	0.00183	0.0022	0.00262
in isopropanol	0.000211	0.000278	0.000371	0.000491	0.000639	0.000825	0.00105	0.00135	0.00174	0.00224
in n-propanol	0.000523	0.000671	0.000837	0.00103	0.0013	0.00161	0.002	0.00246	0.00297	0.00357
in water	5.79e-07	7.99e-07	1.08e-06	1.46e-06	1.96e-06	2.61e-06	3.4e-06	4.49e-06	5.81e-06	7.48e-06
